Data taken from paper PMC4669722, “Antitumour potential of BPT: a dual inhibitor of cdk4 and tubulin polymerization” (Cell Death & Disease, 2015).

Key:
[1] = Pharmacokinetics in BALB/c mice; assay type: in vivo
Experimental: Oral and intravenous pharmacokinetic studies of BPT were carried out in BALB/c male mice of age 4–6 weeks, by administering BPT orally and intravenous formulation at dose of 10 mg/kg for oral and 1 mg/kg for intravenous. Plasma samples were collected at appropriate time points between the range 0 and 24 h, and analysed by LC-MS-MS. Mean plasma concentration calculated and data were further analysed to determine PK parameters such as t1/2, Cmax, ACU, Vd and CL, using WinNonlin 5.3 software package (Pharsight Company, Princeton, NJ, USA).

NCI-H358 cells = experiment: Flow cytometric cell cycle analysis, synchronized NCI-H358; assay type: cell-based, human; details: NCI-H358 after nocodazole block, released in presence of BPT, within 12 h
Experimental: (§1) The untreated (control) and treated (with test compounds) cells were harvested by trypsinization, washed once with PBS and then fixed in 70% chilled (−20 °C) ethanol for minimum 1 h. After the fixation step, cells were centrifuged for 5 min at 3000 × g at room temperature, and the pellet was suspended in PBS containing 50 μg/ml propidium iodide (Sigma-Aldrich, Dorset, UK; cat. no. P-4170) and 0.5 mg/ml DNase-free ribonuclease (Sigma-Aldrich; cat. no. R-5503). The cells were stained for 1 h in the dark at 4 °C. Cell cycle analysis was performed on the Beckman Coulter (Epics Altra) fluorescence-activated cell sorter (Beckman Coulter UK Ltd, Buckinghamshire, UK). To gate all the events that represent single cells, and not cell doublets or cell clumps, the following analyses were performed on the samples. Cytograms of propidium iodide fluorescence peak signal versus integrated fluorescence or the linear signal were plotted. All data points on the straight line were isolated in a single gate and the gated data was further used for plotting a histogram that represents a complete cell cycle. The total number of events was not allowed to exceed 200 events per s. Data acquisition was stopped after a minimum of 10 000 events had been collected.

PKCα = PKCα (Homo sapiens, UniProt P17252); experiment: Kinase profiling (Millipore), PKCα; assay type: biochemical
Experimental: The in vitro kinase assays for testing against Cdk4-cyclin D1, Cdk2-cyclin A, Cdk1-cyclin B1 and Cdk9-cyclin T1 were performed in-house. The methodology and results have been reported previously.[20], [30], [31], [32], [45] The kinase profiling for 58 representative kinases was carrried out commercially at Millipore Bioscience Division, Livingston, UK.

MIAPaCa cells = experiment: Western blot of cell cycle proteins in mutant p53 cells; assay type: cell-based, human; details: data not shown
Experimental: A549, LS174T and MiaPaCa cells were seeded in 25 cm^2 tissue culture flasks in the complete growth medium. […] Cells were harvested by trypsinization, washed in ice-cold PBS and then lysed in buffer (Sigma-Aldrich; cat. no. C-2978) containing protease inhibitor cocktail (Sigma-Aldrich; cat. no. P8340). The lysates were centrifuged at 14 000 r.p.m. (revolutions per minute) for 10 min at 4 °C and the total protein concentrations were estimated in the clear supernatants using the Bradford method. Equal amounts of protein (40 μg) were loaded and electrophoresed on 10% SDS-polyacrylamide gels and blotted on Immobilon-P Transfer Membrane (Millipore; cat. no.IPVH20200). The blots were probed with respective primary antibodies (at 4 °C, overnight) at the following dilutions: cdc2 (New England Biolabs, Hitchin, UK; cat. no. 9110) at 1 : 1000 to detect Cdk1; cyclin B1 (CRUK, London, UK; cat. no. V152) at 1 : 1500 dilution to detect cyclin B1; Pab 1801 (Santa Cruz Biotechnology, Heidelberg, Germany; cat. no. sc-98) at 1 : 500 dilution to detect p53; N-20 (Santa Cruz Biotechnology; cat. no. sc-469) at 1 : 500 dilution to detect p21; C-19 (Santa Cruz Biotechnology; cat. no. sc-528) at 1 : 250 dilution to detect p27; AC-40 (Sigma-Aldrich; cat. no. A4700) at 1 : 2000 dilution to detect actin. […]

Calu-1 cells = experiment: Cell cycle analysis, Calu-1; assay type: cell-based, human; details: p53-null, non-functional mitotic-spindle checkpoint
Experimental: as §1
Fig. S4. Cell cycle analysis of calu-1 cells upon BPT treatment. […]

tubulin = experiment: Cell-free tubulin polymerization assay in vitro; assay type: biochemical; details: for Vmax of tubulin polymerization: control 19 mOD/min
Experimental: The purified tubulin was obtained commercially (Cytoskeleton Inc., Denver, CO, USA) and the polymerization assays were carried out according to the method described previously.[36] […] The resulting polymerization curves are representative of the three phases of microtubule polymerization, namely nucleation, growth and steady-state equilibrium. Paclitaxel and nocodazole were used in the assay as a known enhancer and inhibitor of tubulin polymerization, respectively. The ability of BPT to inhibit tubulin polymerization in vitro was determined according to the manufacturer's instructions. Briefly, tubulin protein (3 mg/ml) was polymerized in GTP buffer (80 mM PIPES, pH 6.9, 2 mM MgCl2, 0.5 mM EGTA, 10.2% glycerol and 1 mM GTP) in the presence of a range of BPT concentrations at 37 °C in a temperature-regulated Biotech spectrophotometer (Potton, Bedfordshire, UK). The absorbance (at 340 nm) kinetics of 61 cycles for each sample was studied and the readings were recorded at an interval of 1 min.

[2] = male, mouse, plasma, 1.0 mg/kg intravenous

## O=C(c1ccccc1-c1ccccc1)N1CCc2c([nH]c3ccccc23)C1 [BPT, 2-(biphenyl-2-carbonyl)-2,3,4,9-tetrahydro-1H-pyrido[3,4-b]indole]
[1]
  oral bioavailability: poor
  plasma exposure after intravenous administration: good plasma exposure
[1]; 1.0 mg/kg intravenous
  CL: 95.8 ml/min per kg
[1]; [2]
  AUC(0-inf): 174 ng·h/mL
  AUC(0-t): 170 ng·h/mL
  C0: 888 ng/mL
  Cmax: 413 ng/mL
  Vd: 1.56 L/kg
  half-life: 11.4 min
[1]; male, mouse, plasma, oral, 10 mg/kg per os
  AUC(0-t): 17.7 ng·h/mL
NCI-H358 cells
  G0/G1- and S-phase cells entering the G2/M phase: > 50%
PKCα
  IC50: > 10 µM
MIAPaCa cells
  cyclin B1 and Cdk1 levels: elevated
  p53, p21 and p27 levels: remained unchanged
Calu-1 cells
  phase of cell cycle block in Calu-1 cells: blocks only at the G0/G1 phase
tubulin; 0.5 μM
  Vmax of tubulin polymerization: 12.5 mOD/min
tubulin; 1 μM
  Vmax of tubulin polymerization: 9.2 mOD/min
tubulin; 2.5 μM
  Vmax of tubulin polymerization: 3 mOD/min
tubulin; 5 μM
  Vmax of tubulin polymerization: 0.5 mOD/min
tubulin; 0.5-5 μM
  reduction in final polymer mass: up to 80%
